Data taken from US11447445B2, “Diabetes and metabolic syndrome treatment with a novel dual modulator of soluble epoxide hydrolase and peroxisome proliferator-activated receptors” (priority 2015, dated 2022).
≈ marks a conversion by molar mass, not a printed value.

How the values were obtained:
PPARα = molecular target: T1, PPARα (Homo sapiens, UniProt Q07869); type: cell-based; conditions: i.a. = inactive
T1 construct: expressed in transfected cells; host or cells: COS-7
Method: (§1) COS-7 cells (PPAR) were grown in DMEM high glucose, supplemented with 10% fetal calf serum (FCS), 1% sodium pyruvate (SP) and 1% penicillin/streptomycin (PS) at 37° C. and 5% CO2. Used plasmids for PPAR transactivation assay are shown under supporting informations.
(§2) The day before transfection, COS-7 cells were seeded in 96-well plates with a density of 30,000 cells per well. Transient transfection was carried out using Lipofectamine LTX reagent (Invitrogen, Carlsbad, Calif., USA) according to the manufacturer's protocol with pFR-Luc (Stratagene), pRL-SV40 (Promega) and the Ga14-fusion receptor plasmids (pFA-CMV-hPPAR-LBD) of the respective PPAR subtype. 5 h after transfection, medium was changed to DMEM without phenol red and 10% FCS, supplemented with 1% SP, 1% PS and 1% L-glutamine, now additionally containing 0.1% DMSO and the respective test compound or 0.1% DMSO alone as untreated control. Each concentration was tested in triplicate wells and each experiment was repeated independently at least three times. Following overnight incubation with the test compounds, cells were assayed for luciferase activity using Dual-Glo™ Luciferase Assay System (Promega) according to the manufacturer's protocol. Luminescence was measured with an Infinite m200 luminometer (Tecan Deutschland GmbH). Each concentration of the compounds was tested in triplicate wells. Normalization for transfection efficacy and cell growth was done by division of the firefly luciferase data by renilla luciferase data resulting in relative light units. Activation factors were obtained by dividing by DMSO control. […] All compounds were evaluated by comparison of the achieved maximum effect to that of the reference compound (pioglitazone for PPARγ, GW7647 for PPARa, and L165041 for PPARS each with 1 μM). Data are expressed as mean±SE; n≥3.
(§3) The Gal4-fusion receptor plasmids pFA-CMV-PPARa-LBD, pFA-CMV-PPARS-LBD and pFA-CMV-PPARγ-LBD containing the hinge region and ligand binding domain (LBD) for each of the PPAR subtypes, respectively, were constructed by integrating cDNA fragments obtained from PCR amplification of human monocytes into the SmaI/XbaI cleavage site of the pFA-CMV vector (Stratagene, La Jolla, Calif., USA) and have already been published. […] Frame and sequence of the fusion receptors were verified by sequencing. pFR-Luc (Stratagene) was used as reporter plasmid and pRL-SV40 (Promega) for normalization of transfection efficacy and cell growth.

[1] = Water solubility approximation; type: physicochemical; conditions: PBS with 0.01% Polysorbate 20, aqueous with cosolvent or surfactant or cyclodextrin, kinetic from dmso stock; PBS pH 7.4, 0.01% Polysorbate 20, 1% DMSO; precipitation at 650 nm; read-out: w.s. (water solubility)
Method: PBS at pH 7.4 with 0.01% Polysorbate 20 (Tween) was combined with 1% of a DMSO solution of the inquired compound in a 96-well transparent flat bottom microtiter plate. Precipitation of the compound was measured at 650 nm with a Tecan Infinite 200 (Tecan Group Ltd, Mannedorf, Switzerland).

PPARδ = molecular target: T2, PPARδ (Homo sapiens, UniProt Q03181); assay: PPAR transactivation assay in COS-7 cells (Gal4-hPPAR-LBD, luciferase); type: cell-based; conditions: i.a. = inactive
T2 construct: expressed in transfected cells; host or cells: COS-7
Method: as §1, §2, §3

recombinant human sEH = molecular target: T3, recombinant human sEH (Homo sapiens, UniProt P34913); assay: biochemical; conditions: for inhibition at 10 µM: read-out: sEH inhibition @10 μM (converted); for IC50: read-out: IC50 sEH (converted)
T3 sequence (P34913 1-555): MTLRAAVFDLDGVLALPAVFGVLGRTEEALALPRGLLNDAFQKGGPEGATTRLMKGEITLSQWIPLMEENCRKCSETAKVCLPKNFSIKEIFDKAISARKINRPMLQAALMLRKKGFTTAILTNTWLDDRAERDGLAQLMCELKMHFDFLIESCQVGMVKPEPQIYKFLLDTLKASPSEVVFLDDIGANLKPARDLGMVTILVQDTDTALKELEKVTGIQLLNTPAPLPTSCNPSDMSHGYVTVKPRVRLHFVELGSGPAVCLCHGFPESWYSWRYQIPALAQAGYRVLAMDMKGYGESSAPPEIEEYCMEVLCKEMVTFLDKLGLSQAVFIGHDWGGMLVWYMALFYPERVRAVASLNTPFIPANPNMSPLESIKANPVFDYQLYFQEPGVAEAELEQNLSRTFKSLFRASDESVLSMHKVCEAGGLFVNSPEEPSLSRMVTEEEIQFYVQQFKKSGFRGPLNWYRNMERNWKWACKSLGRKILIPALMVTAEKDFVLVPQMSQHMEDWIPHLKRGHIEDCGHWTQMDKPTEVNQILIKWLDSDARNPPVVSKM

PPARγ = molecular target: T4, PPARγ (Homo sapiens, UniProt P37231); assay: cell-based; type: cell-based
T4 construct: expressed in transfected cells; host or cells: COS-7
Method: as §1, §2, §3

T1 sequence (Q07869 239-466): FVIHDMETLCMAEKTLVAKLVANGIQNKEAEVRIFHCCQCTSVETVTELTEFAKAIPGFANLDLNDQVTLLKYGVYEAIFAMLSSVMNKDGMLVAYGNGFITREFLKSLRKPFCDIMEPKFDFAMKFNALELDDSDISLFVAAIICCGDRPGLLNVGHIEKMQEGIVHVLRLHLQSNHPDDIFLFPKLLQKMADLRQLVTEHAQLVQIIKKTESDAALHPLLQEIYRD
T2 sequence (Q03181 211-439): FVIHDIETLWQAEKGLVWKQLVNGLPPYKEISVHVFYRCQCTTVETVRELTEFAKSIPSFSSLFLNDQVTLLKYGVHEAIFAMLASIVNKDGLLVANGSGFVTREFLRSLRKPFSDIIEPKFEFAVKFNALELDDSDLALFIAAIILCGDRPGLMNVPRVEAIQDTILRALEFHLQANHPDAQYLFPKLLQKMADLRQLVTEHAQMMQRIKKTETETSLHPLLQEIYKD
T4 sequence (P37231 238-503): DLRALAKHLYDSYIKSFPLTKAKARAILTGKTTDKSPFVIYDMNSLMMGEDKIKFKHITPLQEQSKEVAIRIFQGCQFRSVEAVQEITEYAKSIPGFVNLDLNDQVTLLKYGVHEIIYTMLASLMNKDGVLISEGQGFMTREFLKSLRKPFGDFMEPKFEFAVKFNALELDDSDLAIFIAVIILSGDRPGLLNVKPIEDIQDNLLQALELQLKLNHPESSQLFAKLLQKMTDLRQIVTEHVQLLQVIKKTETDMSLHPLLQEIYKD

## CCC(Cc1ccc(C(=O)NCc2ccccc2Br)cc1)C(=O)O (stereo not shown) [Compound 5c, 2-Ethyl 3-[4-(N-((2-bromo)benzyl)benzamide)]propionic acid]
PPARα
  EC50 PPARα: n.t. i.a. i.a. n.t.
[1]
  solubility: 500 µM (≈ 195 µg/mL)
PPARδ
  EC50 PPARδ: n.t. i.a. i.a. n.t.
Recombinant human sEH
  inhibition at 10 µM: 34%

## CCOC(=O)C(CC)Cc1ccc(C(=O)NCc2ccccc2OC(F)(F)F)cc1 (stereo not shown) [Compound 6b, Ethyl 2-ethyl 3-[4-(N-((2-trifluoromethoxy)benzyl)benzamide)]propanoate]
PPARα
  EC50 PPARα: n.t. i.a. i.a. n.t.
[1]
  solubility: 100 µM (≈ 42.3 µg/mL)
PPARδ
  EC50 PPARδ: n.t. i.a. i.a. n.t.

## CCC(Cc1ccc(C(=O)NCc2ccccc2OC(F)(F)F)cc1)C(=O)O (stereo not shown) [Compound 6c, 2-Ethyl 3-[4-(N-((2-trifluoromethoxy)benzyl)benzamide)]propionic acid]
PPARα
  EC50 PPARα: n.t. i.a. i.a. n.t.
[1]
  solubility: 500 µM (≈ 198 µg/mL)
PPARδ
  EC50 PPARδ: n.t. i.a. i.a. n.t.
Recombinant human sEH
  inhibition at 10 µM: 23%

## CCOC(=O)C(CC)Cc1ccc(C(=O)NCc2ccc(OC)cc2)cc1 (stereo not shown) [Compound 10b, Ethyl 2-ethyl 3-[4-(N-((4-methoxy)benzyl)benzamide)]propanoate]
PPARα
  EC50 PPARα: n.t. i.a. i.a. n.t.
[1]
  solubility: 10 µM (≈ 3.69 µg/mL)
PPARδ
  EC50 PPARδ: n.t. i.a. i.a. n.t.

## CCC(Cc1ccc(C(=O)NCc2ccc(OC)cc2)cc1)C(=O)O (stereo not shown) [Compound 10c, 2-Ethyl 3-[4-(N-((4-methoxy)benzyl)benzamide)]propionic acid]
PPARα
  EC50 PPARα: n.t. i.a. i.a. n.t.
[1]
  solubility: 500 µM (≈ 171 µg/mL)
PPARδ
  EC50 PPARδ: n.t. i.a. i.a. n.t.
Recombinant human sEH
  inhibition at 10 µM: 34%

## CCOC(=O)C(CC)Cc1ccc(C(=O)NCc2ccc(Cl)cc2)cc1 (stereo not shown) [Compound 11b, Ethyl 2-ethyl 3-[4-(N-((4-chloro)benzyl)benzamide)]propanoate]
PPARα
  EC50 PPARα: n.t. i.a. i.a. n.t.
[1]
  solubility: 10 µM (≈ 3.74 µg/mL)
PPARδ
  EC50 PPARδ: n.t. i.a. i.a. n.t.

## CCC(Cc1ccc(C(=O)NCc2ccc(Cl)cc2)cc1)C(=O)O (stereo not shown) [Compound 11c, 2-Ethyl 3-[4-(N-((4-chloro)benzyl)benzamide)]propionic acid]
PPARα
  EC50 PPARα: n.t. i.a. i.a. n.t.
[1]
  solubility: 500 µM (≈ 173 µg/mL)
PPARδ
  EC50 PPARδ: n.t. i.a. i.a. n.t.

## CCOC(=O)/C=C/c1ccc(C(=O)NCc2ccccc2C(F)(F)F)cc1 [Compound 16a, Ethyl (E)-4-[N-((2-trifluoromethyl)benzyl)benzamide]-cinnamate]
PPARα
  EC50 PPARα: i.a.
[1]
  solubility: 2.5 µM (≈ 0.943 µg/mL)
PPARδ
  EC50 PPARδ: i.a.
Recombinant human sEH
  IC50: 130 ± 5 nM

## CCOC(=O)CCc1ccc(C(=O)NCc2ccccc2C(F)(F)F)cc1 [Compound 16b, Ethyl 3-[4-(N-((2-trifluoromethyl)benzyl)benzamide)]propanoate]
PPARα
  EC50 PPARα: i.a.
[1]
  solubility: 5 µM (≈ 1.9 µg/mL)
PPARδ
  EC50 PPARδ: i.a.
Recombinant human sEH
  IC50: 110 ± 3 nM

## O=C(O)CCc1ccc(C(=O)NCc2ccccc2C(F)(F)F)cc1 [Compound 16c, 3-[4-(N-((2-trifluoromethyl)benzyl)benzamide)]propionic acid]
PPARα
  EC50 PPARα: i.a.
[1]
  solubility: 500 µM (≈ 176 µg/mL)
PPARδ
  EC50 PPARδ: i.a.
Recombinant human sEH
  IC50: 9000 ± 1700 nM

## O=C(O)/C=C/c1ccc(C(=O)NCc2ccccc2C(F)(F)F)cc1 [Compound 16d, (E)-4-[N-((2-Trifluoromethyl)benzyl)benzamide]-cinnamic acid]
PPARα
  EC50 PPARα: i.a.
[1]
  solubility: 10 µM (≈ 3.49 µg/mL)
PPARδ
  EC50 PPARδ: i.a.
Recombinant human sEH
  IC50: 800 ± 50 nM

## CCOC(=O)C(C)Cc1ccc(C(=O)NCc2ccccc2C(F)(F)F)cc1 (stereo not shown) [Compound 17b, Ethyl 2-methyl 3-[4-(N-((2-trifluoromethyl)benzyl)benzamide)]propanoate]
PPARα
  EC50 PPARα: i.a.
[1]
  solubility: 10 µM (≈ 3.93 µg/mL)
PPARδ
  EC50 PPARδ: i.a.
Recombinant human sEH
  IC50: 250 ± 40 nM

## CC(Cc1ccc(C(=O)NCc2ccccc2C(F)(F)F)cc1)C(=O)O (stereo not shown) [Compound 17c, 2-Methyl 3-[4-(N-((2-trifluoromethyl)benzyl)benzamide)]propionic acid]
PPARα
  EC50 PPARα: i.a.
[1]
  solubility: 500 µM (≈ 183 µg/mL)
PPARδ
  EC50 PPARδ: i.a.
Recombinant human sEH
  IC50: 8000 ± 1600 nM

## CCCC(Cc1ccc(C(=O)NCc2ccccc2C(F)(F)F)cc1)C(=O)OCC (stereo not shown) [Compound 18b, Ethyl 2-propyl 3-[4-(N-((2-trifluoromethyl)benzyl)benzamide)]propanoate]
PPARα
  EC50 PPARα: i.a.
[1]
  solubility: 5 µM (≈ 2.11 µg/mL)
PPARδ
  EC50 PPARδ: i.a.
Recombinant human sEH
  IC50: 170 ± 40 nM

## CCCC(Cc1ccc(C(=O)NCc2ccccc2C(F)(F)F)cc1)C(=O)O (stereo not shown) [Compound 18c, 2-Propyl 3-[4-(N-((2-trifluoromethyl)benzyl)benzamide)]propionic acid]
PPARα
  EC50 PPARα: i.a.
[1]
  solubility: 500 µM (≈ 197 µg/mL)
PPARδ
  EC50 PPARδ: i.a.
Recombinant human sEH
  IC50: 5000 ± 1300 nM

## CCOC(=O)C(Cc1ccc(C(=O)NCc2ccccc2C(F)(F)F)cc1)c1ccccc1 (stereo not shown) [Compound 19b, Ethyl 2-phenyl 3-[4-(N-((2-trifluoromethyl)benzyl)benzamide)]propanoate]
PPARα
  EC50 PPARα: i.a.
[1]
  solubility: 5 µM (≈ 2.28 µg/mL)
PPARδ
  EC50 PPARδ: i.a.
Recombinant human sEH
  IC50: 120 ± 13 nM

## O=C(NCc1ccccc1C(F)(F)F)c1ccc(CC(C(=O)O)c2ccccc2)cc1 (stereo not shown) [Compound 19c, 2-Phenyl 3-[4-(N-((2-trifluoromethyl)benzyl)benzamide)]propionic acid]
PPARα
  EC50 PPARα: i.a.
[1]
  solubility: 100 µM (≈ 42.7 µg/mL)
PPARδ
  EC50 PPARδ: i.a.
Recombinant human sEH
  IC50: 2500 ± 500 nM

## CON(C)C(=O)/C=C/c1ccc(C(=O)NCc2ccccc2C(F)(F)F)cc1 [Compound 20]
PPARα
  EC50 PPARα: i.a.
PPARδ
  EC50 PPARδ: i.a.
Recombinant human sEH
  IC50: 70 ± 20 nM
PPARγ; i.a. = inactive
  EC50 PPARγ: i.a.

## CON(C)C(=O)C1CC1c1ccc(C(=O)NCc2ccccc2C(F)(F)F)cc1 (stereo not shown) [Compound 21, N-Methoxy-N-methyl 3-[4-(N-((2-trifluoromethyl)benzyl)benzamide)]cyclopropanecarboxamide]
PPARα
  EC50 PPARα: i.a.
PPARδ
  EC50 PPARδ: i.a.
Recombinant human sEH
  sEH IC50 / inhibitory potency (unit not given): double-digit nanomolar range
  IC50: 80 ± 4 nM
PPARγ; COS-7, read-out: PPARγ activation @10 μM, at 10 μM, compared to pioglitazone 1 μM
  activation at 10 µM: 30%
